Reference: patent US8541415B2 (University of Pittsburgh—of the Commonwealth System of …, priority 2008, dated 2013)

How the values were obtained:
[1] = tested on: Nef:Hck-YEEI complex; conditions: Z'-Lyte dose-response, FIG. 7A
[2] = tested on: HIV-1 strain NL4-3; assay: microbe, parasite or virus in culture; format: cell-based; conditions: for activity at 5 µM: 96 h, read-out: HIV p24% Control @ day 4
Experimental: (§1) Lead compounds from the yeast screen were evaluated for activity in a Nef-dependent HIV replication assay. For these experiments, U87MG astroglioma cells engineered to express the HIV-1 co-receptors CD4 and CXCR4 were employed. Replication of HIV-1 NL4-3 is dependent upon an intact viral nef gene in these cells, making this system suitable to evaluate leads from the Nef-directed screen. U87MG cells were infected with HIV-1 in the presence of the top five compounds identified in the yeast screen, and HIV replication was monitored as p24 release into the culture supernatant 4 days later, as known in the art. As known in the art, “p24” refers to a constituent protein of the capsid of HIV-1.
(§2) The data of Table 1 are presented as percent p24 release relative to control in the absence of compound. […] Data are expressed as percent viable cells relative to untreated control culture.
It is understood that “strongest” and like terms in the context of inhibitors identified in a library screen refer to compounds that inhibit at the lowest concentrations. For these experiments, the U87MG astroglioma cell line was used as a model system. […] U87MG cells were infected with HIV-1 strain NL4-3 as well as an isogenic variant that fails to express Nef (ΔNef), over a wide range of viral titers and in the presence of each compound at 5 μM. Viral replication was assessed as HIV p24 antigen release into the culture supernatant 4 and/or 5 days later. Methods for the assay of p24 in culture supernatant are well known in the art and include, for example without limitation, immunochemical methods.

[3] = biological target: T1, Nef:Hck-YEEI complex (Homo sapiens, UniProt P08631); assay: biochemical
T1 sequence (P08631 with tags, fused parts or gaps isoform P08631-3, other chains not shown): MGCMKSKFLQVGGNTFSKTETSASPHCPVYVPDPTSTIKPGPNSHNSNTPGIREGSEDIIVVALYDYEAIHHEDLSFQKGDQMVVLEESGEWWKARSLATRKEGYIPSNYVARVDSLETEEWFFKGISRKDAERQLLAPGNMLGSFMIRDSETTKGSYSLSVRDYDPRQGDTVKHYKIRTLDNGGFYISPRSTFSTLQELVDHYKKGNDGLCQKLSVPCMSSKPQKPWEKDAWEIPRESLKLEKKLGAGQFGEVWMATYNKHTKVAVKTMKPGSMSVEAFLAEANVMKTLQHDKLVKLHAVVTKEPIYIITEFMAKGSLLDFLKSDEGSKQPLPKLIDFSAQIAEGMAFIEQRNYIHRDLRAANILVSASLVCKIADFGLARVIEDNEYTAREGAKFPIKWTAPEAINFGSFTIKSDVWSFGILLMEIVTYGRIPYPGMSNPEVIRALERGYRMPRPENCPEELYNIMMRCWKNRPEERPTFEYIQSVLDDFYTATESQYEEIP

[4] = tested on: HIV-ΔNef mutant (NL4-3 that fails to express Nef); assay: Replication of Nef-defective HIV in U87MG cells (p24 ELISA); conditions: p24 ELISA day 5, FIG. 8, for Ma even at 10 μM
Experimental: HIV p24 release was determined by ELISA at day 5 following the addition of the DFP-analogs. […] U87MG cells were infected a viral density of 500 pg/ml. p24 as determined by ELISA.
To address whether Nef is required for the anti-retroviral effects of these compounds, HIV replication assays in U87MG cells infected with either wild-type or Nef-defective HIV were carried out.
Viral replication was monitored by measuring p24 protein levels in the culture supernatant 4 days after infection by standard ELISA-based techniques. Test compounds were added to the culture 30 min prior to infection with HIV, and DMSO was used as the carrier solvent at a final concentration of 0.1%.

[5] = tested on: U87MG cells; conditions: human, 96 h, 30 μM
Experimental: as §1, §2

[6] = biological target: T1, Nef:Hck-YEEI complex; conditions: Z'-Lyte dose-response, FIG. 7
[7] = biological target: T2, Hck alone (Homo sapiens, UniProt P08631); assay: In vitro kinase assay of Hck alone (Z'-LYTE, peptide substrate); format: biochemical; conditions: Z'-Lyte dose-response, FIG. 7
T2 construct: made in house; host or cells: Sf9 insect cells
T2 sequence (P08631 with tags, fused parts or gaps isoform P08631-3): as the sequence (P08631 with tags, fused parts or gaps isoform P08631-3, other chains not shown) above

[8] = Human immunodeficiency virus 1, NL43, U-87 MG

SMILES	Increase in potency in the presence of Nef (Nef:Hck complex vs Hck alone) [1]	activity at 5 µM [2, 8]	IC50 ([2]; Human immunodeficiency virus 1, NL43, U-87 MG, 120 h, read-out: IC50, HIV-1 replication (viral p24 release), U87MG cells, HIV strain NL4-3, p24 ELISA 5 days later, FIG. 5C)	HIV replication, p24 release ([2]; U87MG cells, HIV-1 NL4-3, compound at 5 μM, 4 and/or 5 days, FIG. 6)	IC50, wild-type HIV replication ([2]; U87MG cells, wild-type NL4-3, p24 ELISA day 5, FIG. 8)	IC50 ([3]; IC50, Nef-induced Hck activation (Nef:Hck complex kinase activity), in vitro, peptide substrate, triplicate, FIG. 5B legend)	IC50 ([3]; IC50, kinase activity of Nef:Hck-YEEI complex, dose response study, FIG. 5B, text b88)	Effect on replication of HIV-ΔNef mutant [4]	Cytotoxicity against U87MG cells [5]	Cytotoxicity, Viable cell % control [5]	Inhibition of Nef:Hck complex [6]	Inhibition of Hck alone [7]	Anti-retroviral activity ([2]; data not shown)
OCCCNc1ncnc2oc(-c3ccccc3)c(-c3ccccc3)c12 [IIIa, 3-(5,6-diphenylfuro[2,3-d]pyrimidin-4-ylamino)propan-1-ol]	2 fold	20%	6 µM	undetectable levels	low μM range	4 µM	~3 µM	no effect	neither DFP-4AP nor any of the other diphenylfuropyrimidine analogs displayed significant cytotoxicity	95 % control			
Nc1ncnc2oc(-c3ccccc3)c(-c3ccccc3)c12 [IIIi]		72%								94 % control	virtually inactive	virtually inactive	very weak anti-retroviral activity
